Organism: Rattus norvegicus
Experiment: DrugMatrix - Regimen: Daily Repeat
Type: toxicity, organism-based, Sprague-Dawley
Set-up: regimen Daily Repeat, gender Male, age 6-8 weeks
Conditions: in vivo, po, route oral GAVAGE, vehicle .5 % CMC; for ABSOLUTE BASOPHIL / ABSOLUTE EOSINOPHIL / ABSOLUTE LYMPHOCYTE / ABSOLUTE MONOCYTE / ABSOLUTE SEGMENTED NEUTROPHIL / BASOPHIL / EOSINOPHIL / ERYTHROCYTE COUNT / HEMATOCRIT / HEMOGLOBIN / LEUKOCYTE COUNT / LYMPHOCYTE / MEAN CORPUSCULAR HEMOGLOBIN / MEAN CORPUSCULAR HEMOGLOBIN CONCENTRATION / MEAN CORPUSCULAR VOLUME / MONOCYTE / NEUTROPHIL / NUCLEATED RED BLOOD CELLS / PLATELET COUNT: tissue Blood; for ALANINE AMINOTRANSFERASE / ALBUMIN / ALKALINE PHOSPHATASE / ASPARTATE AMINOTRANSFERASE / BLOOD UREA NITROGEN / CARBON DIOXIDE / CHLORIDE / CHOLESTEROL / CREATINE PHOSPHOKINASE / CREATININE / GLUCOSE / LACTATE DEHYDROGENASE / LIPASE / PHOSPHORUS / POTASSIUM / SODIUM / TOTAL BILIRUBIN / TOTAL PROTEIN / URIC ACID: tissue Plasma
[1] = 0 mg/kg, 72 h, dose level Control, time 3 day
[2] = 0 mg/kg, 120 h, dose level Control, time 5 day
[3] = 47 mg/kg, 72 h, dose level High, time 3 day

CN(C)C(=O)C(CCN1CCC(O)(c2ccc(Cl)cc2)CC1)(c1ccccc1)c1ccccc1 [LOPERAMIDE]
ABSOLUTE BASOPHIL [1]: 0 CELLS/uL | ABSOLUTE EOSINOPHIL [1]: 0 CELLS/uL | ABSOLUTE LYMPHOCYTE [1]: 12191.17 CELLS/uL | ABSOLUTE MONOCYTE [1]: 183.17 CELLS/uL | ABSOLUTE SEGMENTED NEUTROPHIL [1]: 1192.33 CELLS/uL | BASOPHIL [1]: 0% | EOSINOPHIL [1]: 0% | ERYTHROCYTE COUNT [1]: 5.51 x10E6/uL | HEMATOCRIT [1]: 35.45% | HEMOGLOBIN [1]: 13.82 G/DL | LEUKOCYTE COUNT [1]: 13.57 x10E3/uL | LYMPHOCYTE [1]: 89.83% | MEAN CORPUSCULAR HEMOGLOBIN [1]: 25.1 pg | MEAN CORPUSCULAR HEMOGLOBIN CONCENTRATION [1]: 38.98 G/DL | MEAN CORPUSCULAR VOLUME [1]: 64.42 fL | MONOCYTE [1]: 1.33% | NEUTROPHIL [1]: 8.83% | NUCLEATED RED BLOOD CELLS [1]: 0 /100WBC | PLATELET COUNT [1]: 1118.17 x10E3/uL | ALANINE AMINOTRANSFERASE [1]: 55 u/L | ALBUMIN [1]: 4.15 G/DL | ALKALINE PHOSPHATASE [1]: 449.5 u/L | ASPARTATE AMINOTRANSFERASE [1]: 112.83 u/L | BLOOD UREA NITROGEN [1]: 17.33 mg/dL | CARBON DIOXIDE [1]: 29.5 mmol/L | CHLORIDE [1]: 101 MEQ/L | CHOLESTEROL [1]: 70 mg/dL | CREATINE PHOSPHOKINASE [1]: 1325.83 u/L | CREATININE [1]: 0.18 mg/dL | GLUCOSE [1]: 171.5 mg/dL | LACTATE DEHYDROGENASE [1]: 386 u/L | LIPASE [1]: 10 u/L | PHOSPHORUS [1]: 11.57 mg/dL | POTASSIUM [1]: 6.21 MEQ/L | SODIUM [1]: 141.65 MEQ/L | TOTAL BILIRUBIN [1]: 0.15 mg/dL | TOTAL PROTEIN [1]: 5.75 G/DL | URIC ACID [1]: 1.28 mg/dL | ABSOLUTE BASOPHIL [2]: 0 CELLS/uL | ABSOLUTE EOSINOPHIL [2]: 138.17 CELLS/uL | ABSOLUTE LYMPHOCYTE [2]: 13283.17 CELLS/uL | ABSOLUTE MONOCYTE [2]: 303.83 CELLS/uL | ABSOLUTE SEGMENTED NEUTROPHIL [2]: 1308.17 CELLS/uL | BASOPHIL [2]: 0% | EOSINOPHIL [2]: 1% | ERYTHROCYTE COUNT [2]: 5.32 x10E6/uL | HEMATOCRIT [2]: 33.8% | HEMOGLOBIN [2]: 13.63 G/DL | LEUKOCYTE COUNT [2]: 15.03 x10E3/uL | LYMPHOCYTE [2]: 88.33% | MEAN CORPUSCULAR HEMOGLOBIN [2]: 25.68 pg | MEAN CORPUSCULAR HEMOGLOBIN CONCENTRATION [2]: 40.35 G/DL | MEAN CORPUSCULAR VOLUME [2]: 63.67 fL | MONOCYTE [2]: 1.83% | NEUTROPHIL [2]: 8.83% | NUCLEATED RED BLOOD CELLS [2]: 0 /100WBC | PLATELET COUNT [2]: 1097.5 x10E3/uL | ALANINE AMINOTRANSFERASE [2]: 54.5 u/L | ALBUMIN [2]: 4.27 G/DL | ALKALINE PHOSPHATASE [2]: 337 u/L | ASPARTATE AMINOTRANSFERASE [2]: 94.67 u/L | BLOOD UREA NITROGEN [2]: 17 mg/dL | CARBON DIOXIDE [2]: 28.33 mmol/L | CHLORIDE [2]: 101.5 MEQ/L | CHOLESTEROL [2]: 71.33 mg/dL | CREATINE PHOSPHOKINASE [2]: 628.17 u/L | CREATININE [2]: 0.19 mg/dL | GLUCOSE [2]: 177.83 mg/dL | LACTATE DEHYDROGENASE [2]: 500.5 u/L | LIPASE [2]: 9.5 u/L | PHOSPHORUS [2]: 12.3 mg/dL | POTASSIUM [2]: 5.63 MEQ/L | SODIUM [2]: 143.03 MEQ/L | TOTAL BILIRUBIN [2]: 0.2 mg/dL | TOTAL PROTEIN [2]: 6.02 G/DL | URIC ACID [2]: 1.5 mg/dL | ABSOLUTE BASOPHIL [3]: 0 CELLS/uL | ABSOLUTE EOSINOPHIL [3]: 41.67 CELLS/uL | ABSOLUTE LYMPHOCYTE [3]: 10763.67 CELLS/uL | ABSOLUTE MONOCYTE [3]: 116.33 CELLS/uL | ABSOLUTE SEGMENTED NEUTROPHIL [3]: 1178.33 CELLS/uL | BASOPHIL [3]: 0% | EOSINOPHIL [3]: 0.33% | ERYTHROCYTE COUNT [3]: 5.35 x10E6/uL | HEMATOCRIT [3]: 35.5% | HEMOGLOBIN [3]: 13.67 G/DL | LEUKOCYTE COUNT [3]: 12.1 x10E3/uL | LYMPHOCYTE [3]: 89% | MEAN CORPUSCULAR HEMOGLOBIN [3]: 25.6 pg | MEAN CORPUSCULAR HEMOGLOBIN CONCENTRATION [3]: 38.47 G/DL | MEAN CORPUSCULAR VOLUME [3]: 66.47 fL | MONOCYTE [3]: 1% | NEUTROPHIL [3]: 9.67% | NUCLEATED RED BLOOD CELLS [3]: 0 /100WBC | PLATELET COUNT [3]: 1353 x10E3/uL | ALANINE AMINOTRANSFERASE [3]: 75 u/L | ALBUMIN [3]: 3.9 G/DL | ALKALINE PHOSPHATASE [3]: 286.67 u/L | ASPARTATE AMINOTRANSFERASE [3]: 88 u/L | BLOOD UREA NITROGEN [3]: 15 mg/dL | CARBON DIOXIDE [3]: 30.67 mmol/L | CHLORIDE [3]: 102 MEQ/L | CHOLESTEROL [3]: 68 mg/dL | CREATINE PHOSPHOKINASE [3]: 336.67 u/L | CREATININE [3]: 0.15 mg/dL | GLUCOSE [3]: 144.33 mg/dL | LACTATE DEHYDROGENASE [3]: 285.33 u/L | LIPASE [3]: 9.33 u/L | PHOSPHORUS [3]: 11.33 mg/dL | POTASSIUM [3]: 6.22 MEQ/L | SODIUM [3]: 144.77 MEQ/L | TOTAL BILIRUBIN [3]: 0.1 mg/dL | TOTAL PROTEIN [3]: 5.5 G/DL | URIC ACID [3]: 1.43 mg/dL
